Test results reported in ChEMBL document CHEMBL1137978, “Three new compounds from the plant Lippia alva as inhibitors of chemokine receptor 5 (CCR5)” (Bioorg Med Chem Lett, 2004).

Tests used:
Format in all cases: functional, cell-based
[1] = biological target: T1, C-C chemokine receptor type 5 (Homo sapiens, UniProt P51681); assay: Inhibition of MIP-1beta ligand of chemokine receptor 5 induced calcium signal in U-87-CCR5 cells by calcium mobilization assay
[2] = biological target: T1, C-C chemokine receptor type 5; assay: Inhibition of RANTES co-receptor of chemokine receptor 5 induced calcium signal in U-87-CCR5 cells by calcium mobilization assay
[3] = biological target: T1, C-C chemokine receptor type 5; assay: Inhibition of MIP-1alpha ligand of chemokine receptor 5 induced calcium signal in U-87-CCR5 cells by calcium mobilization assay
[4] = biological target: T1, C-C chemokine receptor type 5; assay: Inhibition of 50% of RANTES co-receptor of chemokine receptor 5 induced calcium signal in U-87-CCR5 cells by calcium mobilization assay

T1 sequence (P51681 whole entry): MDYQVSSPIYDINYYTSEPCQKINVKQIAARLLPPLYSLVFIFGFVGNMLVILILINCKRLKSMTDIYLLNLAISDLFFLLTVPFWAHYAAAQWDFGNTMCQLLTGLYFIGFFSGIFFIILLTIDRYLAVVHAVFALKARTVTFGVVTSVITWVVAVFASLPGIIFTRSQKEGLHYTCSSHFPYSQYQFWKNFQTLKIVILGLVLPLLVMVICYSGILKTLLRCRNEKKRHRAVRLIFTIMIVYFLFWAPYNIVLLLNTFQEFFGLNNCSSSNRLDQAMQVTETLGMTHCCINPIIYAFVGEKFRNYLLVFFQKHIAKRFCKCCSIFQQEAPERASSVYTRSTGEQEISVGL

## CC(OC(=O)/C=C/c1ccc(O)cc1)C(=O)[C@H]1C[C@@H]1[C@H](O)[C@H]1CC=CC(=O)O1 (some centres undefined)
[1]
  IC50: 7.2 µM
[2]
  IC50: > 10 µM
[3]
  IC50: 10 µM

## COc1ccc(/C=C\C(=O)OC(C)C(=O)[C@H]2C[C@@H]2[C@H](O)[C@H]2CC=CC(=O)O2)cc1 (some centres undefined)
[1]
  IC50: 6 µM
[2]
  IC50: > 10 µM
[3]
  IC50: 8.8 µM

## COc1ccc(/C=C/C(=O)OC(C)C(=O)[C@H]2C[C@@H]2[C@H](O)[C@H]2CC=CC(=O)O2)cc1 (some centres undefined)
[4]
  IC50: 8.7 µM
[1]
  IC50: 5.5 µM
[3]
  IC50: > 10 µM
